# Measurements as given in patent US20240358705A1, “COMPOSITIONS AND METHODS FOR TREATMENT OF CANCER” (Board of Supervisors of Louisiana State University and …, priority 2021, published 2024).
# How the values were obtained:
# CD3 T cells [1] = assay: Granzyme B and perforin immunoblot; type: cell-based, mouse; conditions: for granzyme B protein production, increase compared to DMSO / granzyme B, Log2 fold change compared to DMSO / perforin production, increase compared to DMSO / perforin, Log2 fold change compared to DMSO: 72 hours
# Method: (§1) Lymph nodes and spleen were isolated from wild-type C57BL/6N mice. Tissue was mechanically dissociated with the back of a syringe plunger and passed through a 70 M filter. […] Treated cells were incubated at 37° C., 5% CO2 for the designed study duration.
# CD4 T cells [2] = assay: Annexin/PI apoptosis staining, CD4; type: cell-based, mouse; conditions: 3 μM or 10 μM, 72 hours, vs DMSO
# Method: as §1
# Treated CD3 T cells were prepared following the in vitro T cell activation method and incubated for 72 hours at 37° C., 5% CO2.
# BM-MDSCs = assay: MDSC suppression assay; type: cell-based, mouse; conditions: for percent proliferation of CD3 T cells co-cultured with treated BM-MDSCs: DMSO control 40.73%
# Method: 24-well plates were coated with […] anti-mouse CD3e and anti-mouse CD28 resuspended in PBS for two hours at 37° C., 5% C02. PBS containing coating antibodies were then removed and 1×10^6 naïve CFSE CD3 T cells in 1 ml was added to each well. Treated BM-MDSCs were removed using a rubber policeman. […] Cells were harvested and stained following the immune profiling by flow cytometry method. MDSC suppressive capacity was measured by their ability to inhibit CD3 T cell proliferation measured by CFSE dilution.
# CD3 T cells [3] = assay: Cytokine/chemokine quantification (Milliplex); type: cell-based, mouse; conditions: 72 hours
# Method: Lymph nodes and spleen were isolated from wild-type C57BL/6N mice. Tissue was mechanically dissociated with the back of a syringe plunger and passed through a […] filter. […] Treated cells were incubated at 37° C., 5% CO2 for the designed study duration. […] Culture supernatant was harvested and clarified by centrifugation at 2000 RPMI for five minutes. […] Cytokines and chemokines were quantified using a Milliplex mouse cytokine/chemokine magnetic bead panel (Millipore […]32) on a Luminex MAGPIX system with undiluted samples following the manufacturer's instructions.
# CD4 T cells [4] = assay: CD4 T cell differentiation by flow cytometry; type: cell-based, mouse; conditions: 72 hours; for naïve CD4 T cell compartment, reduction vs DMSO: trend not found to be significant
# Method: as §1, with “duration. […] After staining, cells were pelleted, resuspended and run by a BD FACSymphony A3 flow cytometer.” for “duration.”
# CD8 T cells = assay: Single-cell RNA sequencing; type: cell-based, mouse; conditions: 10 μM, 16 hours
# Method: Treated CD8 T cells were prepared following the in vitro T cell activation method and incubated for 16 hours at 37° C., […]. Treated T cells were mixed with treated BM-MDSCs at a […] (T cell): 30% (BM-MDSC) ratio moments before analysis. 10,000 cells with greater than 90% viability were used in the analysis at a concentration of 1,000 cells/μl. Barcoded cDNA libraries were prepared using a chromium next GEM single-cell 3′ reagent kit v3.1 (10× Genomics #1000127) following the manufacturer's instructions. […] (Agilent, Santa Clara, CA) DNA was subsequently quantified by fluorometry using a Qubit dsDNA high sensitivity assay kit (Invitrogen #Q32854). DNA libraries were pooled in equimolar ratios and sequenced using an Illumina NextSeq 500 (Illumina, San Diego, CA) following 10× Genomics' instructions. […] Doublets were subsequently removed using DoubletFinder (https://github.com/chris-mcginnis-ucsf/DoubletFinder). An unsupervised clustering and plotting using UMAPs was completed on the remaining cells. CD8 T cells were identified by first conducting CD3 followed by CD8 refinement and reclustering. To characterize the CD8 subsets, the top 50 differentially expressed genes between each subcluster were compared against publicly available datasets, and known genes associated with activation, exhaustion, and memory T cell states. To determine changes in metabolism and cytotoxicity, a curated list of genes associated with glucose, fatty acid, lipid metabolism, and cytotoxicity were generated. Average gene expression by treatment group was determined for each gene and visualized by heatmap.
# B16-OVA = assay: In vivo therapeutic vaccination and tumor analysis; design: species or system mouse; conditions: 30 mg/kg orally, with SIINFEKL in IFA vaccination and boosts
# Method: C57BL/6N mice were injected with 3×10^5 B16-OVA subcutaneously in the right flank. Five days after injection, mice were administered 200 μg cyclophosphamide dissolved in PBS by intraperitoneal injection to induce minor lymphodepletion. 48 hours after lymphodepletion, mice were intravenously adoptively transferred 2.5×10^6 labeled CD8 OT-I T cells. […]. Tumor growth rates were determined by tumor volume measurement beginning on day four and continuing three times per week for the study duration. Tumor volumes were determined by the ellipsoid formula: [(Length×Width^2)/2].
compound,measurement,setting,value
"O=c1nc(OC[C@@H]2COCCO2)cc2n1CCc1cc(C#CC3CC3)ccc1-2 [GLPG1205, 9-Cyclopropylethynyl-2-((S)-1-[1,4]dioxan-2-ylmethoxy)-6,7-dihydropyrimido[6,1-a]isoquinolin-4-one]","granzyme B protein production, increase compared to DMSO",CD3 T cells [1]; 3 μM,3.57 times
same,"granzyme B, Log2 fold change compared to DMSO",CD3 T cells [1]; 3 μM,1.84 Log2 fold change
same,"perforin production, increase compared to DMSO",CD3 T cells [1]; 3 μM,3.09 times
same,"perforin, Log2 fold change compared to DMSO",CD3 T cells [1]; 3 μM,1.62 Log2 fold change
same,"granzyme B protein production, increase compared to DMSO",CD3 T cells [1]; 10 μM,4.04 times
same,"granzyme B, Log2 fold change compared to DMSO",CD3 T cells [1]; 10 μM,2.01 Log2 fold change
same,"perforin production, increase compared to DMSO",CD3 T cells [1]; 10 μM,3.86 times
same,"perforin, Log2 fold change compared to DMSO",CD3 T cells [1]; 10 μM,1.95 Log2 fold change
same,expression of Granzyme B and Perforin (western blot),"CD3 T cells [1]; activated T cells, high doses (FIG. 5)",dramatically increases the expression of Granzyme B and perforin
same,CD4 apoptosis (Annexin/PI),CD4 T cells [2],did not elicit any significant changes
same,percent proliferation of CD3 T cells co-cultured with treated BM-MDSCs,BM-MDSCs; BM-MDSCs treated with 3 μM,64.99%
same,percent proliferation of CD3 T cells co-cultured with treated BM-MDSCs,BM-MDSCs; BM-MDSCs treated with 10 μM,62.49%
same,T cell proliferation in mixed culture of MDSC and T cells,BM-MDSCs; FIG. 6 Panel A,allows T cells to proliferate (multiply) better
same,"Eotaxin (CCL11) levels, increase vs DMSO",CD3 T cells [3]; 3 μM,19.87%
same,"G-CSF, increase vs DMSO",CD3 T cells [3]; 3 μM,16.64%
same,"GM-CSF, increase vs DMSO",CD3 T cells [3]; 3 μM,32.93%
same,"IL-1P, increase vs DMSO",CD3 T cells [3]; 3 μM,20.06%
same,"IL-2 production, increase vs DMSO",CD3 T cells [3]; 3 μM,51.36%
same,"IL-3 secretion, increase vs DMSO",CD3 T cells [3]; 3 μM,31.91%
same,"IL-4 secretion, increase vs DMSO",CD3 T cells [3]; 3 μM,26.55%
same,"IL-6, increase vs DMSO",CD3 T cells [3]; 3 μM,30.71%
same,"IL-9, increase vs DMSO",CD3 T cells [3]; 3 μM,did not elicit any significant changes
same,"IL-10, increase vs DMSO",CD3 T cells [3]; 3 μM,52.24%
same,"IL-12(p40) levels, increase vs DMSO",CD3 T cells [3]; 3 μM,16.99%
same,"IL-15 secretion, increase vs DMSO",CD3 T cells [3]; 3 μM,16.91%
same,"IP-10 (CXCL10) secretion, increase vs DMSO",CD3 T cells [3]; 3 μM,28.52%
same,"KC (CXCL1) concentrations, increase vs DMSO",CD3 T cells [3]; 3 μM,19.27%
same,"LIF, increase vs DMSO",CD3 T cells [3]; 3 μM,41.71%
same,"TNFα, increase vs DMSO",CD3 T cells [3]; 3 μM,39.64%
same,"VEGF, increase vs DMSO",CD3 T cells [3]; 3 μM,51.99%
same,"Eotaxin (CCL11) levels, increase vs DMSO",CD3 T cells [3]; 10 μM,16.57%
same,"G-CSF, increase vs DMSO",CD3 T cells [3]; 10 μM,26.52%
same,"IL-2 production, increase vs DMSO",CD3 T cells [3]; 10 μM,31.1%
same,"IL-3 secretion, increase vs DMSO",CD3 T cells [3]; 10 μM,38.29%
same,"IL-4 secretion, increase vs DMSO",CD3 T cells [3]; 10 μM,did not elicit an effect
same,"IL-6, increase vs DMSO",CD3 T cells [3]; 10 μM,28.38%
same,"IL-9, increase vs DMSO",CD3 T cells [3]; 10 μM,19.94%
same,"IL-10, increase vs DMSO",CD3 T cells [3]; 10 μM,58.46%
same,"IL-12(p40) levels, increase vs DMSO",CD3 T cells [3]; 10 μM,21.77%
same,"IL-15 secretion, increase vs DMSO",CD3 T cells [3]; 10 μM,15.05%
same,"IP-10 (CXCL10) secretion, increase vs DMSO",CD3 T cells [3]; 10 μM,73.65%
same,"KC (CXCL1) concentrations, increase vs DMSO",CD3 T cells [3]; 10 μM,25.62%
same,"LIF, increase vs DMSO",CD3 T cells [3]; 10 μM,52.21%
same,"LIX (CXCL5), increase vs DMSO",CD3 T cells [3]; 10 μM,20.94%
same,"MCP-1 (CCL2), increase compared to DMSO control",CD3 T cells [3]; 10 μM,21.29%
same,"RANTES (CCL5), increase vs DMSO",CD3 T cells [3]; 10 μM,29.8%
same,"TNFα, increase vs DMSO",CD3 T cells [3]; 10 μM,50.91%
same,"VEGF, increase vs DMSO",CD3 T cells [3]; 10 μM,71.18%
same,"effector/memory CD4 T cells, increase compared to DMSO control",CD4 T cells [4]; 3 μM,31.55%
same,"naïve CD4 T cell compartment, reduction vs DMSO",CD4 T cells [4]; 3 μM,41.57%
same,"effector/memory CD4 T cells, increase compared to DMSO control",CD4 T cells [4]; 10 μM,39.79%
same,"naïve CD4 T cell compartment, reduction vs DMSO",CD4 T cells [4]; 10 μM,45.61%
same,"average expression of genes of glucose, fatty acid, lipid metabolism and cytotoxicity (heatmap)",CD8 T cells,dramatic increase in gene expression
same,total number of CD8 T cells compared to DMSO control,CD8 T cells,increase in total CD8
same,fraction of CD8 T cells identified as naïve,CD8 T cells; DMSO 26.6%,16.2%
same,fraction of CD8 T cells identified as early-effector,CD8 T cells; DMSO 27.8%,41.3%
same,fraction of CD8 T cells identified as effector,CD8 T cells; DMSO 45.6%,42.5%
same,anti-tumor response (tumor growth rates) compared to the MC control group,B16-OVA,significantly stronger anti-tumor response
